Laboratory results reported in ChEMBL document CHEMBL3507680, “University of Dundee, Gates Library screen for HepG2 cell viability”.

Experiment: Human HepG2 cell viability assay in 384 well format
Assay type: toxicity, cell-based
Parameters: dose 125 nL, time 70.5 hour; cytotoxicity at 70.5 h: concentration not given beside the values
Conditions: HepG2 cells, read-out: Inhibition

| Structure (SMILES) | cytotoxicity at 70.5 h [%] |
| --- | --- |
| CCC/N=c1/c(NC(=O)NCCOC)c(O)oc2ccccc12 | 25.8 |
| Cc1nn(C)cc1CN(C)C(=O)c1ccccn1 | 1.81 |
| Cc1nn(C)cc1CN(C)C(=O)c1ccncc1 | 2.69 |
| CCn1cc(Cl)c(C(=O)NCCCO)n1 | -3.76 |
| COc1ccc(N2CCN(C(=O)C(C)n3cc(Br)cn3)CC2)cc1 (stereo not drawn) | -1.02 |
| CC1CCN(C(=O)C(C)n2cc(Br)cn2)CC1 (stereo not drawn) | -3.34 |
| Cc1ccc(C(=O)Nc2nn[nH]n2)s1 | -0.43 |
| O=C(Nc1cnn(COc2ccc(F)cc2Cl)c1)C1CC1 | 9.89 |
| CC(=O)Nc1ccn(Cc2ccccc2)n1 | -12.2 |
| COc1cccc(-c2cc(C(=O)NCCCn3nc(C)cc3C)[nH]n2)c1 | -1.83 |
| CSc1[nH]nc(NC(=O)c2ccccc2)c1C#N | -10 |
| CSc1[nH]nc(NC(=O)c2cccnc2)c1C#N | -5.13 |
| Cc1nn(Cn2ccc(C(=O)N3CCCC3)n2)c(C)c1Cl | -9.33 |
| Cc1nn(Cn2ccc(C(=O)N3CCCCCC3)n2)c(C)c1Cl | -11.3 |
| CC(Cn1cc(Br)cn1)C(=O)Nc1ccn(C)n1 (stereo not drawn) | 7.88 |
| CCCNC(=O)c1nn(CC)cc1NC(=O)c1c(C)nn(C)c1C | -11.3 |
| CCn1cc(CNC(=O)c2nn(CC)cc2Br)cn1 | 8.71 |
| Cc1cc(C(F)(F)F)nn1CC(C)C(=O)Nc1ccccn1 (stereo not drawn) | -12.5 |
| CCOc1ccc(NC(C)=O)cc1S(=O)(=O)Nc1nnc(C)s1 | -10.8 |
| CC(=O)c1cccc(S(=O)(=O)NCCNC(=O)c2snnc2C)c1 | 7.7 |
| COCCCNC1N=C(n2nc(C)cc2C)Nc2sc3c(c21)CCCC3 (stereo not drawn) | 8.46 |

| Structure (SMILES) | cytotoxicity at 70.5 h [%] |
| --- | --- |
| COc1ccc(OC)c(C(C)NC(=O)c2nn(C)c(C)c2Br)c1 (stereo not drawn) | 27.1 |
| CCCN(C(=O)CCS(=O)(=O)Cc1ccccc1)c1cccc(C)c1 | -4.29 |
| CCn1cc(CN(C)C(=O)c2cc(C(F)(F)F)n(C)n2)cn1 | -7.42 |
| COc1cccc(-c2cc(C(=O)N3N=C(C)CC3(O)C(F)F)[nH]n2)c1 (stereo not drawn) | -11 |
| CCn1ccc(-c2nnc(SCC(=O)NCC(C)C)n2CC)n1 | -10.3 |
| Cc1nn(CCC(=O)N(C)Cc2c(Cl)cnn2C)cc1Br | -14.9 |
| Cn1cc(S(=O)(=O)N2CCN(S(=O)(=O)c3ccc(Br)s3)CC2)cn1 | -8.9 |
| Cc1nn(CCCNC(=O)C2CCN(S(C)(=O)=O)CC2)cc1Br | -4.82 |
| O=C(c1ccc(COc2ccc(Cl)cc2)o1)N1N=CCC1(O)C(F)(F)F (stereo not drawn) | 10.7 |
| COc1cccc(Cn2cc(N3C(=O)[C@H]4CCCC[C@H]4C3=O)cn2)c1 | 26.3 |
| COC(=O)c1ccnn1COc1ccc(Cl)cc1 | 28.1 |
| Cc1cc(C)cc(OCn2ccc(C(=O)O)n2)c1 | -10.3 |
| Cc1nn(C)c2nc(O)cc(C(F)(F)C(F)(F)F)c12 | 0.0459 |
| Cn1nc(C(=O)N2CCOCC2)cc1C(=O)Nc1cc(Cl)cc(Cl)c1 | -0.911 |
| Cn1c(=O)n(C)c2nc(Cl)c(CC(=O)c3ccccc3)n2c1=O | -4.74 |
| CCOc1ccc(N2CCCN=C2NC(=O)c2ccc(OC)cc2)cc1 | -9.82 |
| CN1CC(Oc2ccccc2)=NC(SCC(=O)c2ccccc2)=N1 | -0.583 |
| CCC(=O)N1CCN(c2ncnc3cc4c(cc23)OCCO4)CC1 | -4.42 |
| Cc1nc(N2CCN(C(=O)c3ccccn3)CC2)c2c(n1)c(C)nn2C | -8.87 |
| CCC(=O)N1CCN(c2nc(C)nc3c(C)nn(C)c23)CC1 | -6.94 |
| Cc1nn(Cn2ccc(C(=O)N3CCOCC3)n2)c(C)c1Cl | -9.86 |

| Structure (SMILES) | cytotoxicity at 70.5 h [%] |
| --- | --- |
| COCCNc1ccc(CC2CCCN(Cc3c[nH]cn3)C2)nn1 (stereo not drawn) | -0.712 |
| Cc1noc(C)c1C(=O)N1CCCC1(C)C(=O)NC1CCCC1 (stereo not drawn) | -10.2 |
| Cc1ccccc1CN1CCCC1c1cncc(Nc2nncs2)n1 (stereo not drawn) | -13.3 |
| COCC(=O)N1CC(c2ccnc(Nc3cc(C(F)(F)F)ccn3)n2)C1 | 10.3 |
| CNC(=O)C1(C)CN(c2nc(C)cc(C)n2)CCO1 (stereo not drawn) | 1.44 |
| CNC(=O)c1cnn2c(C3CCCN3C)ccnc12 (stereo not drawn) | 12.8 |
| CNC(=O)c1cnn2c(C3CCCN3)ccnc12 (stereo not drawn) | 6.37 |
| O=C(CO)N1CCC(c2ccnc(Nc3cc(C(F)(F)F)ccn3)n2)C1 (stereo not drawn) | -3.68 |
| CCc1nnc(Nc2cc(C)nc(C3CCN(c4cnccn4)C3)n2)s1 (stereo not drawn) | -15.3 |
| CC(=O)N[C@@H]1CN(S(=O)(=O)c2ccc(Cl)cc2)C[C@H]1O | -7.41 |
| Cc1cc(Nc2ncccn2)nc(C2CCCN(CCO)C2)n1 (stereo not drawn) | -9.85 |
| O=C1CCC[C@]2(CN(S(=O)(=O)N3CCCCC3)C[C@H]2c2cccnc2)N1 | -6.21 |
| CCCC(=O)N1CCCC(c2cc3cccnc3c(O)n2)C1 (stereo not drawn) | -13.1 |
| Cn1ccc(C(=O)N2CCCC(c3cc4cccnc4c(O)n3)C2)n1 (stereo not drawn) | -9.08 |
| FC(F)(F)c1cc(C2CCNCC2)nc(-c2ccsc2)n1 | -11.8 |
| CN1CCN(c2nc(O)cc(Cc3ccccc3F)n2)CC1 | -4.68 |
| CCN1CCN(c2nc(O)cc(Cc3ccccc3F)n2)CC1 | -0.665 |
| CC1(c2cc[nH]n2)CCN(C(=O)c2ccc(Cl)cc2)CC1 | -4.57 |
| NC(=O)C1(Cc2ccc(-c3ccccc3)cc2)CCCNC1 (stereo not drawn) | -1.37 |
| CN1CCC(c2cncc(C(=O)NCc3ccc(F)cc3)n2)CC1 | -5.99 |
| Oc1cc(CC2COCCN(CC3(O)CCOCC3)C2)ncn1 (stereo not drawn) | 23 |

| Structure (SMILES) | cytotoxicity at 70.5 h [%] |
| --- | --- |
| CC(C)CCNC(=O)C1CCCN1C(=O)Nc1cccc(F)c1 (stereo not drawn) | -6.59 |
| COCCNc1nnc(-c2cnc(C)cn2)s1 | -3.71 |
| c1cc(-c2cnc(NC3CC3)nc2[C@@H]2CCCO2)ccn1 | -8.62 |
| CC(C)Nc1ncc(-c2ccncc2)c([C@@H]2CCCO2)n1 | -8.69 |
| CC(=O)N1CCOC(c2c(C(=O)O)sc3ccccc23)C1 (stereo not drawn) | -7.22 |
| COc1ccccc1C1CNCCN1C(=O)c1ccc(F)cc1 (stereo not drawn) | 0.353 |
| Cc1nc(C(=O)NCc2ccccn2)cc(C2CCCN2)n1 (stereo not drawn) | 20.2 |
| CNC(=O)c1cccc(CC2COCCN(Cc3ccc(C)o3)C2)n1 (stereo not drawn) | -2.79 |
| NC(=O)c1ccccc1Oc1cccc(C2CCCNC2)n1 (stereo not drawn) | -4.29 |
| CC(C)CN1CCCC1c1cc[nH]n1 (stereo not drawn) | -1.98 |
| CCC(=O)N1CCN(C)C(=O)C(Cc2ccccc2-c2cccs2)C1 (stereo not drawn) | -1.38 |
| COCCN1CCC(c2ncc(C(=O)N3CCOCC3)c(C)n2)CC1 | -1.72 |
| CC(C)(C)n1nnnc1CN(CCc1ccccc1)Cc1ccccc1 | 1.44 |
| O=C(CCc1cccc(C2CCNCC2)n1)N1CCCCC1 | -12.2 |
| NCC(=O)N1CCC(c2ccnc(Nc3cc(C(F)(F)F)ccn3)n2)C1 (stereo not drawn) | 16.8 |
| Cc1cnccc1-c1cnn(CCNC(=O)c2ccccn2)c1C1CC1 | 27.5 |
| Cc1cnccc1-c1cnn(CCNC(=O)c2cccnc2)c1C1CC1 | -5.95 |
| Cc1cnccc1-c1cnn(CCNC(=O)c2ccncc2)c1C1CC1 | 17.4 |
| Cc1cnccc1-c1cnn(CCNC(=O)C(C)(C)C)c1C1CC1 | -9.87 |
| CCn1[nH]c(C)c2c(C(F)(F)F)cc(=O)nc1-2 | -4.81 |
